Consider one molecule from article PMC8348310, “Antioxidants Isolated from Elaeagnus umbellata (Thunb.) Protect against Bacterial Infections and Diabetes in Streptozotocin-Induced Diabetic Rat Model” (Molecules, 2021).

Format in all cases: in vivo, Sprague Dawley adult albino rats
Assay [1] has as its system STZ-induced diabetic rats. As to the kind of experiment: Ex vivo DPPH scavenging of pancreas tissue homogenates (intracellular ROS level). More on the design: dose or concentration left out as unconfirmed. How it is done: (§1) The pancreas tissue (1 g) was isolated from Sprague Dawley rats, washed with cold saline solution and blotted dried. A weighed portion of the pancreas tissue was homogenized on ice and then centrifuged for 15 min at 3500 rpm at 4 °C. The supernatant was then taken and stored at −20 °C until assessed for different enzymes.
Cellular oxidative stress due to the overproduction of reactive oxygen species (ROS) generated by streptozotocin was measured in pancreas tissues through DPPH free radical scavenging assays. Briefly, 50 µL (0.3 mM) DPPH in methanol was incubated with 100 µL supernatant of the tissue homogenates of each experimental group and […] in the dark for 30 min at room temperature. Ascorbic acid was used as the standard. The absorbance was then read against a blank at 517 nm. The percentage scavenging was calculated according to the equation No 1.
Background: The DPPH test is a chemical assay of radical scavenging.

Assay [2] deals with STZ-induced diabetic rats. The experiment in a line: Pancreas histopathological assessment (H & E). The text has this:
For histopathological assessment, the pancreas tissues were removed immediately and washed with cold saline solution to remove the blood. Finally, the pancreas portions were fixed in 10% formalin, dehydrated with mixture of ethanol/xylene and then fixed with paraffin. Staining of tissue slides was done with hematoxylin and eosin (H & E) dye through automatic slide stainer (Sakura Tissue-Tek® DRS™ 2000; Tokyo, Japan). According to the reported assay, the stained slides were observed under microscope to see any variation in pancreatic tissue architecture of STZ-induced diabetic group and treated (glibenclamide/morin) groups.

Assay [3] relates to STZ-induced diabetic rats. The experiment in a line: STZ-induced diabetic rat model: fasting blood glucose and body weight. How it is done: Sprague Dawley adult albino rats (body weight range = 170–200 g) were used in in vivo studies. The animals were purchased from Rifah Institute of Pharmaceutical Sciences Islamabad. The entire animals were given food and fresh water ad libitum. The animals were adjusted at room temperature around 22–25 °C. The animals were housed three rats per cage and maintained with light/dark cycle of about 12 h. All the in vivo procedures were carried out according to the ARRIVE guidelines and approval was taken from the Departmental Animal Ethical Committee (DAEC/2019/1), University of Malakand.
All the animals were separated into nine groups having eight animals each (Table 1). In the current investigational study STZ-induced diabetic model was used to evaluate the anti-hyperglycemic and anti-hyperlipidemic activity of isolated compound morin in chronic multiple dose experiment. All the animals were treated with their respective treatments for 21 days starting daily at 09:00 am. The fasting blood glucose levels were determined at 0, 4th, 7th, 10th, 15th, and 21st days with glucometer from the tail vein. Changes in the body weight were recorded for untreated control, diabetic, and treated groups in fasting condition from day 1 to day 21 of experimental period and are presented as % increase in body weight.
According to the reported protocol diabetes was induced into Sprague Dawley adult albino rats by intraperitoneal injection of STZ (50 mg/kg body weight). Blood samples were collected from the tail vein through glucometer strips by means of SD glucometer and the level of blood glucose was measured 72 h after STZ injection. Normal control groups were given normal saline (8 mL/kg, p.o.) as a vehicle, while isolated compound morin to the treatment groups from 3 days after STZ administration for 3 weeks. Animals with blood glucose levels higher than 300 mg/dL were considered diabetic. During the experiment the blood glucose level and body weights were measured.

Assay [4] has as its system STZ-induced diabetic rats. As to the kind of experiment: Antioxidant enzymes and oxidative stress markers in pancreas tissue homogenates of STZ-induced diabetic rats. How it is done: as §1
The activities of reduced glutathione (GSH) level were determined in the pancreatic tissues according to the previously established method. About 300 µL of tissue supernatant was centrifuged for 5 min at 3500 rpm following deproteinization with 300 µL of 10% trichloroacetic acid. In total, 200 µL of the resulting supernatant of each sample (at concentrations 2, 5, 10, 15, 30, and 50 µg/mL) was mixed with 50 µL of Ellman’s reagent (5,5′-dithiobis-(2-nitro-benzoic acid)) (DTNB) then centrifuged at 3000 rpm for 15 min. The absorbance was recorded at 412 nm. A series of standards treated in a similar way were also run to determine the glutathione content. The amount of glutathione is expressed as µmole/mg of tissue protein.
. […] The pink colored TBARS was measured photometrically at 532 nm and tissue MDA was determined from a standard curve and is expressed as nmole/mg of tissue protein. […]

For the molecule `O=c1c(O)c(-c2ccc(O)cc2O)oc2cc(O)cc(O)c12` [Morin, 2-(2,4-Dihydroxyphenyl)-3,5,7-trihydroxychromen-4-one], the “% DPPH inhibition activity in the pancreas tissues” value in assay [1] (morin 2 treated group, diabetic control 22.41 ± 4.25) is 49.88 ± 3.21%; in assay [1] (morin 5 treated group), 52.66 ± 2.81%; in assay [1] (morin 10 treated group), 60.42 ± 2.12%; in assay [1] (morin 15 treated group) it was 65.33 ± 22.13%; in assay [1] (morin 30 treated group) it was 69.33 ± 3.12%; in assay [1] (morin 50 treated group), 71.42 ± 3.23%. For the same molecule, the pancreas histopathology entry is “did not show restoration of pancreatic tissue” in assay [2] (morin 2, 5 mg/kg orally); “significant dose dependent improvement in cellular architecture” in assay [2] (morin 10, 15 mg/kg orally); “normal histological pattern of pancreas” in assay [2] (morin 30, 50 mg/kg orally). Also, the body weight gain result in assay [3] (morin 10 mg/kg body weight) is “significant (p < 0.01) increases”; in assay [3] (morin 15, 30, and 50 mg/kg body weight), “significant (p < 0.001) improvement”. The blood glucose level result is on record as “slowly reduce blood glucose level” in assay [3] (morin 2 and 5 mg/kg body weight); “significant (p ˂ 0.01) decrease” in assay [3] (morin oral 30, 15, 50 mg/kg body weight, vs diabetic control). The glucose level entry in assay [3] (morin 10, 15, 30, and 50 mg/kg body weight, compared to the diabetic control group) is on record as “comparable decline in glucose level”. For the same molecule, the “MDA level (lipid peroxidation)” value in assay [4] (morin 2, 5, 10, 15, 30, and 50 µg/kg body weight, pancreas tissue homogenates) was “significantly (p < 0.05, p < 0.01, p < 0.001) decreased”. In assay [4] (morin, pancreatic tissues homogenates of diabetic rats), the GPx activity entry was “significantly increased”.
